Numbers after ± are expanded uncertainties.
Settings: Gamma attenuation method

C1C[C@@H]2[C@H]3CC[C@H](C3)[C@@H]2C1 [exo-tetrahydrodicyclopentadiene]
Settings	mass density [kg/m3]
267.3 K, 1480 kPa, Liquid	961.5 ± 15
267.3 K, 6000 kPa, Liquid	962.3 ± 15
267.9 K, 700 kPa, Liquid	960.4 ± 15
267.9 K, 3060 kPa, Liquid	962.1 ± 15
289.1 K, 6000 kPa, Liquid	952 ± 15
290.2 K, 1480 kPa, Liquid	939.1 ± 15
290.9 K, 700 kPa, Liquid	937.8 ± 15
292.8 K, 3060 kPa, Liquid	940.4 ± 15
307 K, 700 kPa, Liquid	924.7 ± 15
307.5 K, 1480 kPa, Liquid	928.1 ± 15
308.7 K, 3060 kPa, Liquid	930.1 ± 15
309 K, 6000 kPa, Liquid	940.8 ± 15
335.4 K, 6000 kPa, Liquid	918.1 ± 15
336.6 K, 3060 kPa, Liquid	911.5 ± 15
337.1 K, 700 kPa, Liquid	908.7 ± 15
337.2 K, 1480 kPa, Liquid	910.1 ± 15
368.4 K, 700 kPa, Liquid	881.1 ± 15
369.6 K, 1480 kPa, Liquid	884.2 ± 15
371.3 K, 3060 kPa, Liquid	884.3 ± 15
373.9 K, 6000 kPa, Liquid	893.8 ± 15
391.4 K, 6000 kPa, Liquid	883.9 ± 15
391.9 K, 700 kPa, Liquid	861.9 ± 15
394.8 K, 1480 kPa, Liquid	863.2 ± 15
394.8 K, 3060 kPa, Liquid	864.7 ± 15
430.8 K, 6000 kPa, Liquid	850.6 ± 15
431.4 K, 700 kPa, Liquid	824.8 ± 15
431.4 K, 1480 kPa, Liquid	832.6 ± 15
431.4 K, 3060 kPa, Liquid	834.1 ± 15
453.2 K, 3060 kPa, Liquid	820.5 ± 15
453.8 K, 700 kPa, Liquid	801.2 ± 15
454.4 K, 1480 kPa, Liquid	815.4 ± 15
454.6 K, 6000 kPa, Liquid	829.8 ± 15
483.1 K, 1480 kPa, Liquid	796.7 ± 15
483.8 K, 700 kPa, Liquid	779.5 ± 15
485.1 K, 3060 kPa, Liquid	800.4 ± 15
485.9 K, 6000 kPa, Liquid	807 ± 15
510 K, 700 kPa, Liquid	759.3 ± 15
510.1 K, 1480 kPa, Liquid	772.1 ± 16
510.3 K, 3060 kPa, Liquid	783.9 ± 15
512.1 K, 6000 kPa, Liquid	777.4 ± 16
529.9 K, 3060 kPa, Liquid	756 ± 15
530.4 K, 1480 kPa, Liquid	743 ± 15
531.9 K, 6000 kPa, Liquid	752.2 ± 15
532.4 K, 700 kPa, Liquid	737.7 ± 17
562.1 K, 700 kPa, Liquid	646.3 ± 18
563.8 K, 1480 kPa, Liquid	716.9 ± 16
564.1 K, 3060 kPa, Liquid	726.9 ± 16
566.8 K, 6000 kPa, Liquid	719.2 ± 15
603.4 K, 700 kPa, Gas	25.5 ± 5.2
617.6 K, 1480 kPa, Gas	153.4 ± 11
623.8 K, 6000 kPa, Liquid	661.1 ± 16
627.1 K, 3060 kPa, Liquid	633.8 ± 16
651.6 K, 700 kPa, Gas	22.9 ± 5
651.9 K, 3060 kPa, Liquid	590.9 ± 16
652.4 K, 6000 kPa, Liquid	615.5 ± 16
652.9 K, 1480 kPa, Gas	55.3 ± 7.3
681.8 K, 6000 kPa, Liquid	579.7 ± 16
682.7 K, 700 kPa, Gas	29.4 ± 5
683.2 K, 1480 kPa, Gas	57.8 ± 5
685 K, 3060 kPa, Gas	193.2 ± 9.5
714 K, 6000 kPa, Gas	465.2 ± 25
715 K, 3060 kPa, Gas	124.1 ± 7.3
715.8 K, 1480 kPa, Gas	58 ± 5
730.2 K, 700 kPa, Gas	19.5 ± 5
743.7 K, 3060 kPa, Gas	104.8 ± 5.3
743.8 K, 6000 kPa, Gas	256.7 ± 19
744 K, 1480 kPa, Gas	52.4 ± 5
744.7 K, 700 kPa, Gas	19.7 ± 5
771.9 K, 700 kPa, Gas	26.4 ± 5
773.7 K, 1480 kPa, Gas	50.2 ± 5
773.7 K, 6000 kPa, Gas	152.1 ± 8.3
774 K, 3060 kPa, Gas	96.1 ± 5.1
803.3 K, 700 kPa, Gas	24.4 ± 5
803.8 K, 3060 kPa, Gas	87.6 ± 5.1
804 K, 1480 kPa, Gas	47.9 ± 5
804.1 K, 6000 kPa, Gas	142 ± 5.3
833 K, 700 kPa, Gas	25.4 ± 5
833.3 K, 1480 kPa, Gas	52.1 ± 5
833.4 K, 6000 kPa, Gas	120.1 ± 5.2
833.5 K, 3060 kPa, Gas	83.9 ± 5.1
872.2 K, 3060 kPa, Gas	70.8 ± 5.2
872.5 K, 1480 kPa, Gas	46.1 ± 5.1
873.3 K, 700 kPa, Gas	24.4 ± 5
873.4 K, 6000 kPa, Gas	110.1 ± 5.1

From the NIST ThermoML archive (doi:10.1021/acs.jced.8b00729)
